Experimental data taken from ChEMBL document CHEMBL1126435, “DuP 747: a new, potent, kappa opioid analgesic. Synthesis and pharmacology1” (Bioorg Med Chem Lett, 1992).

Key:
[1] = molecular target: Sigma non-opioid intracellular receptor 1 (Homo sapiens, UniProt Q99720)
Description: Compound was evaluated for the binding affinity to sigma opioid receptor

Rattus norvegicus [2] = assay: Compound was evaluated for analgesic activity by rat tail-flick assay following subcutaneous administration; conditions: sc
Rattus norvegicus [3] = assay: Compound was evaluated for analgesic activity by rat tail-flick assay following peroral administration; conditions: po

Sequence of Sigma non-opioid intracellular receptor 1 (Q99720 whole entry): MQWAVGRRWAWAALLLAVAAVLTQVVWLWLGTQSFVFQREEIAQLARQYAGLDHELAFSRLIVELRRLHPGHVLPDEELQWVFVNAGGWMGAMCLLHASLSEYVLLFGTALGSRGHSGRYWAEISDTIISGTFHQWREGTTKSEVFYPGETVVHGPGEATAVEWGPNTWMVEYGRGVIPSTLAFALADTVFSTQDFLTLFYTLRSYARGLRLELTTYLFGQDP

| SMILES | Ki [1] | ED50 (Rattus norvegicus [2]) | ED50 (Rattus norvegicus [3]) |
| --- | --- | --- | --- |
| COc1cccc2c1CC[C@H](N1CCCC1)[C@H]2N(C)C(=O)Cc1ccc(Cl)c(Cl)c1 | 5.16 µM |  |  |
| CN1CC[C@]23c4c5ccc(O)c4O[C@H]2[C@@H](O)C=C[C@H]3[C@H]1C5 [MORPHINE] |  | 4.9 mg/kg | 54 mg/kg |
